Assay [1] relates to Plasmodium falciparum. Kind of assay: Antimalarial activity against Plasmodium falciparum K1 by [3H]hypoxanthine incorporation assay. In kind it is functional, organism-based.
Assay [2] has as its system Plasmodium falciparum. Nature of the assay: Antimalarial activity against Plasmodium falciparum NF54 by [3H]hypoxanthine incorporation assay in presence of 4-carboxy-2,2,6,6,-tetramethyl-1-piperidinyloxy. In kind it is functional.
Assay [3] deals with Plasmodium falciparum. Nature of the assay: Antimalarial activity against Plasmodium falciparum NF54 by [3H]hypoxanthine incorporation assay in presence of 1:1 ratio of compound to 4-oxo-2,2,6,6,-tetramethyl-1-piperidinyloxy. In kind it is functional.
Assay [4] deals with Plasmodium falciparum. Nature of the assay: Antimalarial activity against Plasmodium falciparum NF54 by [3H]hypoxanthine incorporation assay in presence 1:3 ratio of compound to deoxyartemisinin. Format: functional.
Assay [5] relates to Plasmodium falciparum. Kind of assay: Antimalarial activity against Plasmodium falciparum NF54 by [3H]hypoxanthine incorporation assay in presence of deoxyartemisinin. In kind it is functional.
In assay [6] the test system is Plasmodium falciparum. Kind of assay: Antimalarial activity against Plasmodium falciparum NF54 by [3H]hypoxanthine incorporation assay in presence 3:1 ratio of compound to deoxyartemisinin. In kind it is functional.
Assay [7] deals with Plasmodium falciparum. Nature of the assay: Antimalarial activity against Plasmodium falciparum NF54 by [3H]hypoxanthine incorporation assay in presence of 1:1 ratio of compound to 4-amino-2,2,6,6,-tetramethyl-1-piperidinyloxy. In kind it is functional.
For assay [8], the system named is Plasmodium falciparum. Nature of the assay: Antimalarial activity against Plasmodium falciparum NF54 by [3H]hypoxanthine incorporation assay in presence of 3:1 ratio of compound to 4-amino-2,2,6,6,-tetramethyl-1-piperidinyloxy. In kind it is functional.
The test system of assay [9] is Plasmodium falciparum. Nature of the assay: Antimalarial activity against Plasmodium falciparum NF54 by [3H]hypoxanthine incorporation assay in presence of 1:1 ratio of compound to 4-hydroxy-2,2,6,6,-tetramethyl-1-piperidinyloxy. In kind it is functional.
Assay [10] deals with Plasmodium falciparum. Nature of the assay: Antimalarial activity against Plasmodium falciparum NF54 by [3H]hypoxanthine incorporation assay in presence of 4-amino-2,2,6,6,-tetramethyl-1-piperidinyloxy. Format: functional.
Assay [11] relates to Plasmodium falciparum. Nature of the assay: Antimalarial activity against Plasmodium falciparum NF54 by [3H]hypoxanthine incorporation assay in presence of 4-oxo-2,2,6,6,-tetramethyl-1-piperidinyloxy. In kind it is functional.
Assay [12] has as its system Plasmodium falciparum. Nature of the assay: Antimalarial activity against Plasmodium falciparum NF54 by [3H]hypoxanthine incorporation assay in presence of 3:1 ratio of compound to 4-hydroxy-2,2,6,6,-tetramethyl-1-piperidinyloxy. In kind it is functional.
Assay [13] relates to Plasmodium falciparum. Nature of the assay: Antimalarial activity against Plasmodium falciparum NF54 by [3H]hypoxanthine incorporation assay in presence of 1:3 ratio of compound to 4-amino-2,2,6,6,-tetramethyl-1-piperidinyloxy. In kind it is functional.
The subject of assay [14] is Plasmodium falciparum. Nature of the assay: Antimalarial activity against Plasmodium falciparum NF54 by [3H]hypoxanthine incorporation assay in presence of 2,2,6,6,-tetramethyl-1-piperidinyloxy. Format: functional.
For assay [15], the system named is Plasmodium falciparum. Kind of assay: Antimalarial activity against Plasmodium falciparum NF54 by [3H]hypoxanthine incorporation assay in presence 3:1 ratio of compound to carbaOZ277. Format: functional.
In assay [16] the test system is Plasmodium falciparum. Nature of the assay: Antimalarial activity against Plasmodium falciparum NF54 by [3H]hypoxanthine incorporation assay in presence 1:3 ratio of compound to carbaOZ277. In kind it is functional.
Assay [17] relates to Plasmodium falciparum. Nature of the assay: Antimalarial activity against Plasmodium falciparum NF54 by [3H]hypoxanthine incorporation assay in presence 1:1 ratio of compound to carbaOZ277. In kind it is functional.
The subject of assay [18] is Plasmodium falciparum. Nature of the assay: Antimalarial activity against Plasmodium falciparum NF54 by [3H]hypoxanthine incorporation assay in presence of 3:1 ratio of compound to 2,2,6,6,-tetramethyl-1-piperidinyloxy. In kind it is functional.
Assay [19] has as its system Plasmodium falciparum. Kind of assay: Antimalarial activity against Plasmodium falciparum NF54 by [3H]hypoxanthine incorporation assay in presence of carbaOZ277. Format: functional.
For assay [20], the system named is Plasmodium falciparum. Nature of the assay: Antimalarial activity against Plasmodium falciparum NF54 by [3H]hypoxanthine incorporation assay in presence of 4-hydroxy-2,2,6,6,-tetramethyl-1-piperidinyloxy. Format: functional.
The subject of assay [21] is Plasmodium falciparum. Nature of the assay: Antimalarial activity against Plasmodium falciparum NF54 by [3H]hypoxanthine incorporation assay in presence of 1:3 ratio of compound to 4-hydroxy-2,2,6,6,-tetramethyl-1-piperidinyloxy. Format: functional.
The subject of assay [22] is Plasmodium falciparum. Kind of assay: Antimalarial activity against Plasmodium falciparum NF54 by [3H]hypoxanthine incorporation assay in presence of 1:3 ratio of compound to 4-oxo-2,2,6,6,-tetramethyl-1-piperidinyloxy. In kind it is functional.
The test system of assay [23] is Plasmodium falciparum. Kind of assay: Antimalarial activity against Plasmodium falciparum NF54 by [3H]hypoxanthine incorporation assay in presence of 1:1 ratio of compound to 4-carboxy-2,2,6,6,-tetramethyl-1-piperidinyloxy. Format: functional.
The subject of assay [24] is Plasmodium falciparum. Kind of assay: Antimalarial activity against Plasmodium falciparum NF54 by [3H]hypoxanthine incorporation assay in presence of 1:3 ratio of compound to 4-carboxy-2,2,6,6,-tetramethyl-1-piperidinyloxy. In kind it is functional.
Assay [25] relates to Plasmodium falciparum. Nature of the assay: Antimalarial activity against Plasmodium falciparum NF54 by [3H]hypoxanthine incorporation assay in presence of 3:1 ratio of compound to 4-oxo-2,2,6,6,-tetramethyl-1-piperidinyloxy. In kind it is functional.
For assay [26], the system named is Plasmodium falciparum. Nature of the assay: Antimalarial activity against Plasmodium falciparum NF54 by [3H]hypoxanthine incorporation assay in presence of 3:1 ratio of compound to 4-carboxy-2,2,6,6,-tetramethyl-1-piperidinyloxy. Format: functional.
The subject of assay [27] is Plasmodium falciparum. Kind of assay: Antimalarial activity against Plasmodium falciparum NF54 by [3H]hypoxanthine incorporation assay in presence of 1:3 ratio of compound to 2,2,6,6,-tetramethyl-1-piperidinyloxy. Format: functional.
Assay [28] has as its system Plasmodium falciparum. Kind of assay: Antimalarial activity against Plasmodium falciparum NF54 by [3H]hypoxanthine incorporation assay in presence of 1:1 ratio of compound to 2,2,6,6,-tetramethyl-1-piperidinyloxy. In kind it is functional.
The subject of assay [29] is Plasmodium falciparum. Nature of the assay: Antimalarial activity against Plasmodium falciparum NF54 by [3H]hypoxanthine incorporation assay in presence 1:1 ratio of compound to deoxyartemisinin. In kind it is functional.
In assay [30] the test system is Plasmodium falciparum. Kind of assay: Antimalarial activity against Plasmodium falciparum NF54 by [3H]hypoxanthine incorporation assay. Format: functional, organism-based.
Where [31] appears, read: Plasmodium falciparum, K1, read-out: IC50.

Converted amounts (≈) assume the structure as drawn.

For `CC(C)(N)CNC(=O)CC1CC[C@]2(CC1)OC[C@]1(O2)C2CC3CC(C2)CC1C3` (stereo partly drawn), the 50% inhibitory concentration (IC50) – broadly, the concentration that gives 50% inhibition – in the assay with Plasmodium falciparum [1] (setting [31]) came out at 12 µg/mL (≈ 30.7 µM).

On to `CC1(C)CC(N)CC(C)(C)N1[O]` [TEMPAMINE], for which the IC50 in the assay on Plasmodium falciparum [1] (setting [31]) came to 16 µg/mL (≈ 93.4 µM).

Take `CC(C)(N)CNC(=O)C[C@H]1CC[C@]2(CC1)OO[C@]1(O2)C2CC3CC(C2)CC1C3` [OZ277]: the FIC50 in the assay on Plasmodium falciparum [2] amounted to 1.3; with Plasmodium falciparum [3] it was 1.3; in the assay with Plasmodium falciparum [4], 1.4; in the assay with Plasmodium falciparum [5] it was 1.2; with Plasmodium falciparum [6], 1.2; in the assay with Plasmodium falciparum [7], 2.4. Moreover, the FIC50 was found to be 1.7 in the assay with Plasmodium falciparum [8]; 1.3 in the assay with Plasmodium falciparum [9]; 2.1 with Plasmodium falciparum [10]; 1.3 in the assay with Plasmodium falciparum [11]; 1.2 in the assay on Plasmodium falciparum [12]; 2.3 in the assay with Plasmodium falciparum [13]. The FIC50 is reported as 1.5 with Plasmodium falciparum [14]; 1.1 with Plasmodium falciparum [15]; 1.2 in the assay on Plasmodium falciparum [16]; 1.2 in the assay with Plasmodium falciparum [17]; 1.2 with Plasmodium falciparum [18]; 1.3 in the assay with Plasmodium falciparum [19]. Further, the FIC50 in the assay on Plasmodium falciparum [20] was 1.3; in the assay with Plasmodium falciparum [21], 1.5; with Plasmodium falciparum [22] it was 1.4; in the assay on Plasmodium falciparum [23] it was 1.3; with Plasmodium falciparum [24], 1.3; with Plasmodium falciparum [25], 1.1. The FIC50 worked out at 1.2 with Plasmodium falciparum [26], 1.8 with Plasmodium falciparum [27], 1.5 in the assay on Plasmodium falciparum [28] and 1.3 in the assay on Plasmodium falciparum [29].

As for `CC1(C)CC(=O)CC(C)(C)N1[O]`, the 50% inhibitory concentration (IC50) with Plasmodium falciparum [1] (setting [31]) amounted to 2.2 µg/mL (≈ 12.9 µM).

As for `CC1(C)CC(C(=O)O)CC(C)(C)N1[O]`, the figures for the IC50 with Plasmodium falciparum [30] and in the assay on Plasmodium falciparum [1] were 0.00054 µg/mL (≈ 0.0027 µM) and 0.00057 µg/mL (≈ 0.00285 µM), respectively.

Take `C[C@@H]1CC[C@H]2[C@@H](C)C(=O)O[C@@H]3O[C@@]4(C)CC[C@@H]1[C@]32OO4` [ARTEMISININ]: the FIC50 is on record as 1.3 in the assay with Plasmodium falciparum [2]; 2.6 in the assay with Plasmodium falciparum [3]; 1.2 in the assay with Plasmodium falciparum [4]; 1.1 in the assay on Plasmodium falciparum [5]; 1 with Plasmodium falciparum [6]; 1.9 with Plasmodium falciparum [7]. The FIC50 in the assay with Plasmodium falciparum [8] came to 2.8; in the assay on Plasmodium falciparum [9], 4; in the assay with Plasmodium falciparum [10], 2; with Plasmodium falciparum [11], 2.3; with Plasmodium falciparum [12] it was 2.5; with Plasmodium falciparum [13], 1.3. The FIC50 is 1.9 in the assay with Plasmodium falciparum [14]; 1.1 in the assay on Plasmodium falciparum [15]; 1.1 in the assay with Plasmodium falciparum [16]; 1.1 in the assay on Plasmodium falciparum [17]; 2.2 in the assay with Plasmodium falciparum [18]; 1.1 in the assay on Plasmodium falciparum [19]. In addition, the FIC50 in the assay with Plasmodium falciparum [20] is 2.8; in the assay on Plasmodium falciparum [21] it was 1.8; in the assay with Plasmodium falciparum [22], 2.3; in the assay on Plasmodium falciparum [23], 1.4; in the assay with Plasmodium falciparum [24] it was 1.4; with Plasmodium falciparum [25], 2. For the same compound, the FIC50 is listed as 1.2 with Plasmodium falciparum [26], 1.3 in the assay on Plasmodium falciparum [27], 2.1 in the assay on Plasmodium falciparum [28] and 1.1 with Plasmodium falciparum [29].

Turning to `CC1(C)CC(O)CC(C)(C)N1[O]` [TEMPOL], the IC50 with Plasmodium falciparum [1] (setting [31]) worked out at 19 µg/mL (≈ 110 µM).

As to `C[C@@H]1CC[C@H]2[C@@H](C)C(=O)O[C@@H]3O[C@@]4(C)CC[C@@H]1[C@]32O4` [DEOXYARTEMISININ], the IC50 in the assay with Plasmodium falciparum [1] (setting [31]) turned out to be 34 µg/mL (≈ 128 µM).

The values are drawn from ChEMBL document CHEMBL1671678, “Probing the antimalarial mechanism of artemisinin and OZ277 (arterolane) with nonperoxidic isosteres and nitroxyl radicals” (Antimicrob Agents Chemother, 2010).
